Assay results reported in patent US20190328721A1, “METHOD OF ACTIVATING DENDRITIC CELLS” (KOREA INSTITUTE OF SCIENCE AND TECHNOLOGY, priority 2018, published 2019).

Legend:
[1] = test system: bone marrow-derived macrophages (BMDMs); assay: Phagocytosis of cancer cells by bone marrow-derived macrophages in vitro; format: cell-based, mice
Experimental: (§1) Specifically, the present inventors prepared bone marrow-derived macrophages (BMDMs) differentiated from excised bone marrow of mice using M-CSF and bone marrow-derived dendritic cells (BMDCs) differentiated from excised bone marrow using Flt3L. The degree of differentiation was confirmed by flow cytometry analysis using antibodies specifically binding to F4/80 (BMDM marker) and CD11c (BMDC marker), respectively (FIGS. 2A and 2B).
(§2) The prepared BMDMs and BMDCs were stained with 1 μM CellTracker Deep Red (Thermo Fisher Scientific, USA). 30 μM of Y27632 (Abcam, USA) or 30 μM of fasudil (Selleck Chemicals, USA) was added to each of 15×10^4 cells/ml of the stained macrophages and dendritic cells and incubated at 37° C. for 1 hour. As a negative control, macrophages or dendritic cells that were not incubated with Y27632 and fasudil were used.
(§3) Bone marrow-derived macrophages or dendritic cells prepared in RPMI medium and cancer cell lines stained with 1 μM CellTracker CMFDA (Thermo Fisher Scientific, USA) were co-cultured at about 37° C. for about 2 hours. CT26.CL25, a colon cancer cell line, and B16F10-OVA, a melanoma cell line, were used as the cancer cells.
(§4) Thereafter, the percentage of cancer cells was measured by flow cytometry, and the phagocytosis ratio of macrophages and dendritic cells against cancer cells was calculated. The results are shown in FIGS. 2C to 2F (left: cancer cell line CT26.CL25, right: cancer cell line B16F10-OVA).
(§5) In order to more accurately analyze the phagocytosis of macrophages and dendritic cells against cancer cells according to the treatment of the ROCK inhibitor, the present inventors analyzed phagocytosis of the BMDMs and BMDCs against CT26.CL25 colon cancer cells using the pHrodo-SE dye, which changes in fluorescence depending on pH. When […], the pH of the cancer cells decreased and became red. When treated with Y27632 as described above for the above-mentioned phagocytosis response, the phagocytic activities of both the BMDMs and BMDCs against cancer cells were improved.
(§6) The present inventors performed an experiment to confirm how long the phagocytosis of BMDMs and BMDCs against cancer cells due to the ROCK inhibitor is maintained. Specifically, BMDMs and BMDCs were pretreated with Y27632 for 1 hour, then Y27632 was removed, and immediately after 30 minutes, 1 hour, 2 hours, or 4 hours, the phagocytosis against CT26.CL25 and B16F10-Ova was measured using a flow cytometer. The other experimental conditions were the same as in Example 1-1.
(§7) In order to confirm whether the ROCK inhibitor increases phagocytosis against cancer cells by acting on phagocytic cells (BMDMs or BMDCs) themselves, Y27632 was used to pretreat the phagocytic cells or cancer cells for 1 hour, and the phagocytic activity was analyzed using the same procedure described in Example 1-1.
The present inventors identified through the above-mentioned results that Y27632 promotes phagocytic cells against cancer cells by inhibiting ROCK in the phagocytic cells. In order to elucidate a more detailed mechanism related to the increase of phagocytic activity by ROCK inhibitors, the present inventors analyzed phagocytosis of the phagocytic cells against cancer cells using blebbistatin (Sigma-Aldrich, USA), which can inhibit the movement of myosin light chain, which exist downstream of ROCK signaling pathway, according to the method described in Example 1-1.
Bone marrow-derived macrophages (BMDMs) treated with 30 μM of fasudil were co-cultured with B16F10-Ova malignant melanoma cells for 1 hour and the phagocytic activity of the BMDMs against apoptotic cancer cells was analyzed by flow cytometry analysis. In order to induce immunogenic apoptosis, 2.5 μM mitoxantrone (Sigma-Aldrich, USA) was administered with B16F10-Ova cells stained with CellTracker Deep Red (Thermo Fisher Scientific, USA) for 4 hours. […]

B16F10 cancer cells = assay: B16F10 tumor model, ripasudil, PDT and anti-PD-L1 antibodies; set-up: species or system C57BL/6 wild-type mice; settings: mouse, in vivo
[2] = test system: bone marrow-derived dendritic cells (BMDCs); assay: Phagocytosis of cancer cells by bone marrow-derived dendritic cells in vitro; format: cell-based, mice; settings: 30 μM, 1 hour; B16F10; co-cultivated 30 min
dendritic cells = assay: Flow cytometry of dendritic cells from B16F10-Ova-bearing mice (maturation, subsets, cross presentation); format: in vivo; settings: tumor-draining lymph nodes
Experimental: To confirm the effect of the ROCK inhibitor Y27632 on the maturation process of dendritic cells, the inventors administered Y27362 to B16F10-Ova-bearing cancer model animals according to the same administration schedule as in Example 2-1, and the expression of CD40 and CD86, which are dendritic cell maturation markers, was analyzed by flow cytometry.
Recently, it has been shown that CD103 (corresponding to CD141 in humans)-positive dendritic cells (CD103 DC) play an important role in cancer cell phagocytosis and T cell anticancer immunity among dendritic cells (Broz et al., Cancer Cell, 26 (5): 638-652, 2014). Therefore, in order to analyze the effect of the ROCK inhibitor on CD103 DC, Y27632 was administered to B16F10-Ova-bearing cancer model mice according to the administration schedule described in the above Example 2-1, tumor tissues and tumor-draining lymph nodes were excised, and then flow cytometry analysis was performed using antibodies specifically binding to dendritic cell markers (CD11b, CD103 and CD8). It was confirmed that the ratio of CD103 DC was increased by Y27632 in both the tumor-draining lymph nodes (FIG. 15A) and the tumor tissues (FIG. 15B). On the other hand, in the case of CD11b-positive and CD8-positive dendritic cells, no change due to administration of Y27632 was observed.
The present inventors analyzed cross presentation activity which is one of functions of dendritic cells via flow cytometry analysis using an antibody capable of detecting a cancer antigen (H-2K^b-Ova) capable of activating T cells, through flow cytometry analysis using an antibody (H-2K^b monoclonal antibody, Invitrogen, USA). It was confirmed that the cross presentation of CD103 DC was increased by Y27632 in both tumor-draining lymph nodes (FIG. 15C) and tumor tissues (FIG. 15D).
Further, the present inventors analyzed CD40, which is one of the markers of dendritic cell function capable of activating T cells and a DC maturation marker of dendritic cells, by flow cytometry analysis using anti-CD40 antibodies. As shown in FIGS. 15E and 15F, it was confirmed that the maturation of CD103 DC was increased by Y27632 in the tumor-draining lymph nodes.
The present inventors analyzed a series of immunological induction processes occurring after the phagocytosis against cancer cells or cancer-specific antigens in order to analyze the mechanism of the combination therapy for the anti-cancer immune response. Specifically, in order to confirm the effect of the combination therapy on the dendritic cell maturation, Y27632 and doxorubicin were administered to B16F10-Ova-bearing cancer model mice as described above, and then tumor-draining lymph nodes were isolated and the expression of CD40 and CD86, which are dendritic cell maturation markers, was analyzed by flow cytometry analysis.
Further, in order to confirm the effect of the combined treatment on the cross presentation process to the dendritic cells, the present inventors administered Y27632 and doxorubicin to B16F10-Ova-bearing cancer model mice as described above, isolated the tumor-draining lymph nodes, and then cross presentation activity, which is one of functions of dendritic cells, was analyzed via flow cytometry analysis using an antibody capable of detect a cancer antigen (H-2K^b-Ova) capable of activating T cells, through flow cytometry analysis using an antibody (H-2K^b monoclonal antibody, Invitrogen, USA).
The present inventors then investigated the effect of the combination of the drugs on the maturation process of dendritic cells. Specifically, the tumor-draining lymph nodes were isolated after administration of Y27632 and/or cisplatin in the B16F10-Ova-bearing cancer model, and the expression level of CD40 and CD86, the dendritic cell maturation markers, was analyzed by flow cytometry. As shown in FIG. 19C and 19D, there was no influence on the maturation of dendritic cells when Y27632 alone, cisplatin alone, or the combination of the two were administered (FIGS. 19C and 19D). […]

[3] = test system: bone marrow-derived dendritic cells (BMDCs); assay: Phagocytosis of cancer cells by bone marrow-derived dendritic cells in vitro; format: cell-based, mice; settings: method of Example 1-1; CT26.CL25 and B16F10-Ova
Experimental: as §1, §2, §3, §4, §5, §6
as §7, with “1-1. […]” for “1-1.”
Phagocytic activity of bone marrow-derived dendritic cells (BMDCs) differentiated from bone marrow cells against cancer cells was analyzed by treating the BMDCs with ROCK inhibitor Y27632 (30 μM) for 1 hour and then co-cultivating with CT26.CL25 colon cancer cells pretreated with 25 μM of doxorubicin for 24 hours or B16F10-Ova malignant melanoma cells treated with 30 μM of Y27632 for 1 hour and then treated with 2.5 μM doxorubicin (Sigma-Aldrich, USA) for 24 hours by pHrodo SE (Thermo Fisher Scientific, USA) staining (BMDC:Dox-treated B16F10-Ova=1:1). As shown in FIGS. 16A to 16D, it was confirmed that the phagocytic activity of BMDCs induced by doxorubicin were increased in the Y27632-treated group compared to the control group (FIGS. 16A to 16D). […]

CT26 cancer cells = assay: CT26 tumor model; format: in vivo, mice; settings: fasudil 20 mg/kg; Y27632 10 mg/kg
Experimental: The same procedure as described above was repeated except that CT26 was used instead of the CT26.CL25 colon cancer cell line and fasudil (Selleck Chemicals, USA) at 20 mg/kg of body weight or Y27632 at 10 mg/kg of body weight was administered.

[4] = test system: bone marrow-derived dendritic cells (BMDC); assay: Cross presentation of H-2Kb-Ova by BMDCs in vitro; format: cell-based, mice; settings: Y27632 30 μM, 1 hour on BMDCs; cancer cells doxorubicin treated or untreated
Experimental: Furthermore, the inventors investigated whether the cross presentation of dendritic cells was promoted by the combination treatment of doxorubicin and Y27632. To this end, the present inventors used 30 μM of Y27632 to pretreat bone marrow-derived dendritic cells (BMDC) stained with CellTracker CMFDA (Thermo Fisher Scientific, USA) for 1 hour, followed by treatment with doxorubicin treated B16F10-Ova cells or doxorubicin untreated B16F10-Ova cells. After the co-culture, floating cancer cells were removed by withdrawing supernatant. Cross presentation activity, which is one of functions of dendritic cells, was analyzed via flow cytometry analysis using an antibody capable of detect a cancer antigen (H-2K^b-Ova) capable of activating T cells, through flow cytometry analysis using an antibody (H-2K^b monoclonal antibody, Invitrogen, USA).

B16F10-Ova = B16F10-Ova tumor model, Y27632 combined with a chemotherapeutic; format: in vivo, mice; settings: doxorubicin 5 mg/kg, Y27632 10 mg/kg
Experimental: Specifically, tumor suppression was examined by administering 5 mg/kg of doxorubicin and 10 mg/kg of Y27632 alone or in combination to B16F10-Ova-bearing tumor model mice prepared as in Example 2-1. Doxorubicin was administered three times at intervals of 3 days from the 8th day after the injection of cancer cells, and Y27632 was administered at a dose of 10 mg/kg continuously for two consecutive days via intravenous injection followed by a day of rest as a cycle, followed by 3 cycles of 3-day intervals (FIG. 18A). The mice were sacrificed on the 20th day after the injection of cancer cells, the tumor tissue was excised, and ex vivo images were taken and the tumor tissues were weighed. Before the sacrifice of the mice, the tumor volumes over time were calculated as described above using calipers at intervals of 3 days from the 8th day after the injection of the cancer cells.
In order to confirm whether CD8^+ T cells infiltrates into tumor tissues, tumor tissues excised from an experimental animal were sectioned and subjected to fluorescence immunohistochemistry using anti-CD8 antibodies.
First, to determine the cisplatin therapeutic concentration, a B16F10-Ova tumor model was constructed in a nude mouse lacking T cell immunity and then an experiment was conducted to confirm the concentration of cisplatin having an anticancer effect similar to that of doxorubicin at 5 mg/kg. […] Thus, in order to evaluate the therapeutic effect of cisplatin and the ROCK inhibitor Y27632 in the B16F10-Ova-bearing tumor model, 3 mg/kg of cisplatin was administered according to the administration schedule shown in FIG. 18A.

MMTV/Neu mice tumors = assay: Spontaneous cancer development model; format: in vivo; settings: anti-CD8 fluorescence immunohistochemistry
Experimental: The survival rate was recorded over up to 100 days. When the size of tumor was over 2,500 mm^3, the animal was euthanized (FIG. 20C).
Specifically, fluorescence immunohistochemical analysis was performed using anti-CD8 antibodies in the cancer tissues after the end of the experiment.
Accordingly, the present inventors investigated whether the combination of the drugs can increase the anti-cancer immunity even in the spontaneous cancer development model. […] After completion of the experiment, the present inventors isolated the spleen cells and treated with peptide against rat-Neu, an antigen expressed in the cancer of the spontaneous cancer development model, and after 48 hours, the culture supernatant was collected and IFN-γ was quantified using an ELISA kit (R&D Systems, Inc, USA).

[5] = doxorubicin 5 mg/kg, Y27632 10 mg/kg

## C[C@H]1CNCCCN1S(=O)(=O)c1cccc2cncc(F)c12 [ripasudil]
[1]; 30 μM, 1 hour, B16F10, co-cultivated 30 min
  phagocytic activity of BMDMs against PDT-treated cancer cells: significantly increased
B16F10 cancer cells
  CD40 and CD86 on dendritic cells of tumor draining lymph nodes: No increased expression
[2]
  phagocytic activity of BMDCs against PDT-treated cancer cells: significantly increased

## N.N.[Cl][Pt][Cl] [cisplatin]
Dendritic cells; cisplatin study
  cross-presentation function (H-2Kb-Ova) of dendritic cells: no effect
  maturation of dendritic cells (CD40 and CD86): no influence

## Cc1ccc2c(c1)C(=O)C1(O)CCN(c3ccccc3)C1=N2 (stereo not drawn) [blebbistatin]
[1]; method of Example 1-1, CT26.CL25 and B16F10-Ova
  phagocytic action of phagocytic cells against cancer cells (BMDMs): significantly enhance
[3]
  phagocytic action of phagocytic cells against cancer cells (BMDCs): significantly enhance

## O=S(=O)(c1cccc2cnccc12)N1CCCNCC1 [fasudil]
[1]; 30 μM, 1 hour, B16F10-Ova treated with 2.5 μM mitoxantrone, compared with control
  phagocytosis of BMDMs against cancer cells in immunogenic cell death induced by mitoxantrone: significant increase
CT26 cancer cells
  growth of cancer (size of the tumor): inhibited the growth of cancer similarly to Y27632

## COc1cccc2c1C(=O)c1c(O)c3c(c(O)c1C2=O)C[C@@](O)(C(=O)CO)C[C@@H]3O[C@H]1C[C@H](N)[C@H](O)[C@H](C)O1 [doxorubicin]
Dendritic cells; [5]
  antigenic cross presentation (H-2Kb-Ova) in the dendritic cells: did not significantly increase
  dendritic cell maturation (expression of CD40 and CD86): no effect
[4]
  cross presentation (H-2Kb-Ova) of BMDCs co-cultured with B16F10-Ova cells: increased the cross-presentation
B16F10-Ova
  complete regression of the tumor: not observed
  infiltration of CD8+ T cells into tumor tissues: slight infiltration
MMTV/Neu mice tumors
  CD8+ T cells in tumor tissues (infiltration): some T cell infiltration
